Measured values as given in patent publication US6022696A, “Methods of identifying agonists or antagonists of angiotensin IV” (Washington State University Research Foundation, priority 1998, dated 2000).
Read-outs that look alike come from different tables or passages of the source. Non-standard residues stand in square brackets, D forms with d. Residues, ends and D or L forms follow the SMILES beside them. Nle = CCCC[C@H](N)C(=O)O

Legend:
[1] = system: rat; conditions: in vivo
[2] = system: rat; assay: Systemic arterial blood pressure during renal artery infusion

CCCC[C@H](N)C(=O)N[C@@H](Cc1ccc(O)cc1)C(=O)N[C@H](C(=O)N[C@@H](Cc1cnc[nH]1)C(=O)N1CCC[C@H]1C(=O)N[C@@H](Cc1ccccc1)C(=O)O)[C@@H](C)CC [NleYIHPF] (H-[Nle]YIHPF-OH)
effect on arterial blood pressure [1]: no effect on mean arterial pressure

CC[C@H](C)[C@H](NC(=O)[C@H](Cc1ccc(O)cc1)NC(=O)[C@@H](N)CCCCN)C(=O)N[C@@H](Cc1c[nH]cn1)C(=O)N1CCC[C@H]1C(=O)N[C@@H](Cc1ccccc1)C(=O)O [KYIHPF] (H-KYIHPF-OH)
effect on arterial blood pressure [2]: no significant changes in arterial blood pressure
